Where no end group is shown, it is not given here.
Tests used:
plasma corticosterone = experiment: Plasma corticosterone levels in the Saelens precipitated withdrawal model, Protocol B (Example 3); assay type: in vivo, mouse; details: morphine-treated mice, naloxone-precipitated withdrawal; for plasma corticosterone levels: TCAP-1 250 nmole/kg vs. CP154,526 5, 20, 50 mg/kg
Method: Two hours after the 11 a.m. injections, at 1 p.m., all mice received an intraperitoneal (“i.p.”) injection of Naloxone 2.5 mg/kg), baseline blood samples were taken and then they were immediately placed individually in an observation area and video recorded 20 minutes. The number of jumps (lifting of all feet off the ground) were recorded for 20 minutes. A second set of blood samples were taken post-jumps (about 30 minutes after the naloxone administration.
The same protocol as in Protocol A was followed with the exception that on day 2, there were three Group 3 mice (10 per group) which were administered: 5 mg/kg, 20 mg/kg or 50 mg/kg of the CRH antagonist CP154,526.

Swiss Webster mice [1] = experiment: Saelens drug-precipitated withdrawal in the mouse, TCAP-1 pre-morphine (Example 1); assay type: in vivo
Swiss Webster mice [2] = experiment: Saelens precipitated withdrawal test, CRH antagonist dose response vs. TCAP-1, Protocol B, jumps (Example 3); assay type: in vivo, mouse; details: TCAP-1 250 nmole/kg vs. CP154,526 5, 20, 50 mg/kg; morphine-treated mice; naloxone 2.5 mg/kg i.p.
Swiss Webster mice [3] = experiment: Saelens precipitated withdrawal test, single dose TCAP-1 post-morphine (Example 2); assay type: in vivo, mouse; details: Group 4: TCAP-1 500 nmole/kg s.c. single dose post-morphine; naloxone 10 mg/kg i.p.
Swiss Webster mice [4] = experiment: Saelens precipitated withdrawal test, CRH antagonist vs. TCAP-1, Protocol A (Example 3); assay type: in vivo, mouse; details: TCAP-1 250 nmole/kg per time point vs. CRH antagonist 20 mg/kg per time point; morphine-treated mice; naloxone 2.5 mg/kg i.p.

Compound | plasma corticosterone levels (plasma corticosterone) | dose needed to approach TCAP-1 250 nmole/kg effect on corticosterone levels (plasma corticosterone) | Mean # Jumps over 20 Minutes (Swiss Webster mice [1]; Group 8: saline days 1-3, saline day 4-5, MK801 on day 5, no morphine, no naloxone, n = 4) | number of jumps/20 minutes (Swiss Webster mice [2]) | number of jumps in 20 minutes after naloxone (Swiss Webster mice [3]) | Mean # Jumps over 20 Minutes (Swiss Webster mice [1]; TCAP-1 10 nmole/kg s.c. days 1-3, morphine 32 mg/kg i.p. days 4-5, naloxone 10 mg/kg i.p., n = 3) | Mean # Jumps over 20 Minutes (Swiss Webster mice [1]; TCAP-1 25 nmole/kg s.c. days 1-3, morphine 32 mg/kg i.p. days 4-5, naloxone 10 mg/kg i.p., n = 9) | Mean # Jumps over 20 Minutes (Swiss Webster mice [1]; TCAP-1 50 nmole/kg s.c. days 1-3, morphine 32 mg/kg i.p. days 4-5, naloxone 10 mg/kg i.p., n = 9) | Mean # Jumps over 20 Minutes (Swiss Webster mice [1]; TCAP-1 100 nmole/kg s.c. days 1-3, morphine 32 mg/kg i.p. days 4-5, naloxone 10 mg/kg i.p., n = 9) | Mean # Jumps over 20 Minutes (Swiss Webster mice [1]; TCAP-1 250 nmole/kg s.c. days 1-3, morphine 32 mg/kg i.p. days 4-5, naloxone 10 mg/kg i.p., n = 9) | jump rate after naloxone-precipitated morphine withdrawal (Swiss Webster mice [1]; TCAP-1 10-250 nmole/kg pre-morphine vs. morphine alone) | number of jumps/20 minutes after naloxone (Swiss Webster mice [4])
CCCCN(CC)c1nc(C)nc2c1c(C)cn2-c1c(C)cc(C)cc1C [CP154,526] | still had an effect | at least 50 mg/kg |  |  |  |  |  |  |  |  |  | 
C[C@]12N[C@H](Cc3ccccc31)c1ccccc12 [MK801, reference compound] |  |  | 0 |  |  |  |  |  |  |  |  | 
Teneurin C-Terminal Associated Peptide-1 (QQLLGTGRVQGYDGYFVLSVEQYLELSDSANNIHFMRQSEI-NH2) [TCAP-1, mouse TCAP-1 in some experiments] | more effective in reducing plasma corticosterone levels in the mice at lower dosage levels |  |  | more effective in reducing the number of jumps/20 minutes | significantly reduced the number of jumps | 47 | 47 | 42 | 32 | 16 | reduced jump rates in a dose dependent manner | much more effective and at lower dosages in significantly lowering the number of jumps

Reference: patent US20220062380A1 (priority 2018, published 2022)
